{"source": "patent US20190274974A1", "about": "“Treatment of Pain Associated with Trigeminal Neuralgia” (priority 2011, published 2019)", "key": {"[1]": {"test_system": "CCI-SN rats", "conditions": "rat, in vivo; cited from earlier work"}, "[2]": {"test_system": "CCI-ION rats", "conditions": "rat, in vivo; cited from earlier work"}, "[3]": {"test_system": "CCI-SN rats", "assay_type": "in vivo, rat", "conditions": "rat, in vivo", "procedure": "Rats are anaesthetized with sodium pentobarbital (50 mg/kg i.p.). Unilateral CCI-SN is performed under direct visual control using a Zeiss microscope (10-25×) essentially as described by Bennett and Xie (G. J. Bennett et al., Pain, 33 (1988) 87-107).\nMechanical sensitivity is determined with a graded series of von Frey filaments (Bioseb, Bordeaux, France; bending force: 0.07-60.0 g). The stimuli are applied within the SN territory (midplantar surface of the left hindpaw) three times at the nerve-injured side (ipsilateral, left) and then at the contralateral side for a total of 6 applications of each filament per rat, always beginning with the filament producing the lowest force. The von Frey filaments are applied at least 3 seconds after the rats returned to their initial resting state. For each session, the complete series of von Frey filaments is tested in increasing force order. The minimal force filament causing a hindpaw withdrawal response allows determination of the mechanical response threshold. The 60 g filament is the cut-off threshold.\n(§1) For studying the effects of acute treatment with tapentadol in CCI-SN rats, tapentadol (1, 3 and 10 mg/kg i.p.) or its vehicle (0.9% NaCl i. p.) was injected acutely 14 days after surgery. Sham-operated rats were treated in parallel. Pressure threshold values to trigger nocifensive responses to von Frey filaments application onto the plantar surface of ipsilateral hindpaw were determined at various times after acute injection of tapentadol or saline. Cut-off was fixed at 60 g pressure.\n(§2) For studying the effects of subchronic treatment with tapentadol in CCI-SN rats, starting on day 16 (Time=D) after surgery, they received i.p. injections of tapentadol (10 mg/kg, twice daily, at 10:00 AM and 6:00 PM) or saline (at the same day times as the drug) for four days. On the following day (day 20 after surgery), both tapentadol- and saline-pretreated CCI-SN rats were i.p. injected with Tapentadol (10 mg/kg; Time=0) and then subjected to von Frey filaments'test applied to ipsilateral hindpaw for determination of pressure threshold values at various times thereafter.\nIn a second part of this study (B), unilateral chronic constriction injury to the sciatic nerve was performed two weeks before acute treatment with reboxetine (10 mg/kg i.p.), tapentadol (10 mg/kg i.p.) or saline (0.5 ml i.p./rat). Pressure threshold values were then determined at various times using von Frey filaments test applied to ipsilateral hindpaw.\nMorphine (1, 3 and 10 mg/kg s.c.) or its vehicle (0.9% NaCl) was injected acutely 14 days after CCI-SN surgery. Sham-operated rats were treated in parallel. Pressure threshold values to trigger nocifensive responses to von Frey filaments application onto the plantar surface of ipsilateral hindpaw were determined at various times after acute injection of morphine or saline.\n14 days after CCI-SN surgery, rats were injected with reboxetine (10 mg/kg i.p.) or its vehicle (0.9% NaCl) followed, 15 min later, by morphine (1 mg/kg s.c.) or its vehicle (0.9% NaCl) and subjected to von Frey filament tests for the following 4 hours. Sham-operated rats were treated in parallel.\nThe results are depicted in FIG. 11."}, "[4]": {"test_system": "CCI-ION rats", "assay_type": "in vivo, rat", "conditions": "rat, in vivo", "procedure": "Rats are anaesthetized with sodium pentobarbital (50 mg/kg i.p.). Unilateral CCI-ION is performed under direct visual control using a Zeiss microscope (10-25×) essentially as described by Vos et al (Vos B P, Strassman A M, Maciewicz R J (1994), J. Neurosci. 14: 2708-2723). Briefly, the head is fixed in a Horsley-Clarke stereotaxic frame and a midline scalp incision is made, exposing skull and nasal bone. The edge of the orbit, formed by the maxillary, frontal, lacrimal, and zygomatic bones, is dissected free. The orbital contents are gently deflected to give access to the infraorbital nerve which is dissected free at its most rostral extent in the orbital cavity, just caudal to the infraorbital foramen. Only 5 mm of the nerve can be freed (Vos et al.), providing the space for placement of two chromic catgut (5-0) ligations tied loosely (with about 2 mm spacing) around it. […] Finally, scalp incision is closed using silk sutures (4-0). In sham-operated rats, the ION is exposed using the […] procedure, but is not ligated.\nMechanical sensitivity is determined with a graded series of eleven von Frey filaments (Bioseb, Bordeaux, France). The filaments produce a bending force of 0.07, 0.16, 0.40, 0.60, 1.00, 2.00, 4.00, 6.00, 8.00, 10.00 and 12.00 g, respectively. The stimuli are applied within the ION territory (vibrissae pad) three times at the nerve-injured side and then at the contralateral side for a total of 6 applications of each filament per rat, always beginning with the filament producing the lowest force. The von Frey filaments are applied at least 3 seconds after the rats returned to their initial resting state. For each session, the complete series of von Frey filaments is tested in increasing force order.\nThe latter responses represent the highest scores in the rank-ordered response scoring system initially described by Vos et al. The minimal force filament causing at least one among these responses (to at least 2 out of the 3 an each side) allows determination of the mechanical response threshold. The 12.00 g filament is the cut-off threshold (no tissue-injury occurs at this pressing force).\nas §1, with “CCI-ION” for “CCI-SN”, “(1 or” for “(1, 3 and”, “12” for “60”\nas §2, with “in CCI-ION” for “in CCI-SN”, “Frey filaments' test” for “Frey filaments'test”\n14 days after CCI-ION surgery, rats were injected with reboxetine (10 mg/kg i.p.) or its vehicle (0.9% NaCl) followed, 15 min later, by morphine (3 mg/kg s.c.) or its vehicle (0.9% NaCl) and subjected to von Frey filament tests for the following 4 hours. Sham-operated rats were treated in parallel."}, "[5]": {"test_system": "BDNF-induced allodynia", "assay": "Mechanical allodynia induced by intrathecal administration of BDNF in healthy rats (von Frey filaments test)", "assay_type": "in vivo, rat", "procedure": "In a first part of this study, BDNF (0.3 ng in 25 μl of saline per rat) or saline (25 μl) was injected intrathecally in adult male rats slightly anesthetized with isoflurane (according to Mestre et al. (1994), J. Pharmacol. Toxicol. Meth., 32, 197-200), and animals were subjected to von Frey filaments test applied to hindpaws at various times thereafter.\nIn a second part of this study, tapentadol (3 or 10 mg/kg i.p.) or saline was administered to rats on the 7th day (Time=0 on abscissa) after intrathecal injection of BDNF (Time=C) as described above. Pressure threshold values were determined using von Frey filaments test applied to hindpaws.\nIn a first part of this study (A), reboxetine (10 mg/kg i.p.; mesylate, Ascent Scientific, Bristol, UK), tapentadol (10 mg/kg i.p.) or saline (0.5 ml i.p./rat) was injected on the 7th day after intrathecal administration of BDNF (0.3 ng in 25 μl of saline per rat). Pressure threshold values were determined at various times thereafter using von Frey filaments test applied to hindpaws."}, "[6]": {"test_system": "BDNF-induced allodynia", "assay": "Mechanical allodynia induced by intrathecal administration of BDNF in healthy rats (von Frey filaments test)", "assay_type": "in vivo, rat", "conditions": "BDNF 0.3 ng i.t.; up to 11 days; data not shown"}}, "note": "Entries after “also recorded” stand apart in the source; their conditions may differ."}
{"molecule": "NC1=N[C@H](O)[C@H]2[C@H]3O[C@]4(O)O[C@@H]([C@@H](O)[C@@]2(N1)[C@@H]4O)[C@]3(O)CO", "note": "[tetrodotoxin]", "values": [{"measurement": "effect on mechanical allodynia generated by CCI-SN", "setting": "[1]", "result": "significantly attenuate"}, {"measurement": "effect on mechanical allodynia generated by CCI-ION", "setting": "[2]", "result": "ineffective"}]}
{"molecule": "CN1CC[C@]23c4c5ccc(O)c4O[C@H]2[C@@H](O)C=C[C@H]3[C@H]1C5", "note": "[morphine]", "values": [{"measurement": "anti-allodynic effect (pressure threshold to trigger hindpaw withdrawal)", "setting": "[3]", "result": "strongly anti-allodynic"}, {"measurement": "increase in pressure threshold values", "setting": "[3]", "result": "only discrete increases"}, {"measurement": "persistence of full reversal", "setting": "[3]", "result": "at least one hour"}, {"measurement": "reversal of CCI-SN-induced mechanical allodynia", "setting": "[3]", "result": "fully reversed; also recorded: not completely reversed"}, {"measurement": "time after injection at which full reversal was reached", "setting": "[3]", "result": 30, "unit": "min"}, {"measurement": "anti-allodynic effect", "setting": "[4]", "result": "only a discrete effect"}, {"measurement": "maximal increase in pressure threshold value as share of that determined in healthy intact rats", "setting": "[4]", "result": 20, "unit": "%"}, {"measurement": "effect on mechanical allodynia generated by CCI-SN", "setting": "[1]", "result": "significantly attenuate"}, {"measurement": "effect on mechanical allodynia generated by CCI-ION", "setting": "[2]", "result": "ineffective"}]}
{"molecule": "CCOc1ccccc1OC(c1ccccc1)C1CNCCO1", "note": "(centres unmarked) [reboxetine, reference compound]", "values": [{"measurement": "anti-allodynic effect compared to tapentadol (10 mg/kg i.p.)", "setting": "[3]", "result": "developed more slowly and was much less pronounced"}, {"measurement": "increase in pressure threshold values", "setting": "[3]", "result": "only discrete increases"}, {"measurement": "reversal of CCI-SN-induced decrease in pressure threshold values", "setting": "[3]", "result": "significant but only partial reversal"}, {"measurement": "anti-allodynic effect", "setting": "[4]", "result": "completely inactive"}, {"measurement": "maximal increase in pressure threshold values relative to that caused by 10 mg/kg i.p. of tapentadol", "setting": "[5]; rat, in vivo", "result": "only one third"}, {"measurement": "reversal of mechanical allodynia caused by intrathecal BDNF", "setting": "[5]; rat, in vivo", "result": "significant but partial reversal"}, {"measurement": "time at which the maximal increase in pressure threshold was reached", "setting": "[5]; rat, in vivo", "result": 45, "unit": "min"}]}
{"molecule": "BDNF: neurotrophic factor injected intrathecally (0.3 ng per rat) to induce mechanical allodynia (protein, UniProt P23560 19-247, looked up) Neurotrophic factor BDNF …: APMKEANIRGQGGLAYPGVRTHGTLESVNGPKAGSRGLTSLADTFEHVIEELLDEDQKVRPNEENNKDADLYTSRVMLSSQVPLEPPLLFLLEEYKNYLDAANMSMRVRRHSDPARRGELSVCDSISEWVTAADKKTAVDMSGGTVTVLEKVPVSKGQLKQYFYETKCNPMGYTKEGCRGIDKRHWNSQCRTTQSYVRALTMDSKKRIGWRFIRIDTSCVCTLTIKRGR", "values": [{"measurement": "hindpaw pressure threshold values from day 4 to day 8 after injection", "setting": "[5]; BDNF 0.3 ng i.t.", "result": "as low as those previously determined two weeks after surgery in CCI-SN rats"}, {"measurement": "hindpaw pressure threshold values on the 11th day relative to untreated healthy rats", "setting": "[5]; BDNF 0.3 ng i.t.", "result": "only half"}, {"measurement": "pressure threshold value to trigger hindpaw withdrawal after intrathecal injection", "setting": "[5]; BDNF 0.3 ng i.t., single injection, healthy rats", "result": "progressive and long lasting decrease"}, {"measurement": "pressure threshold value within the vibrissal pad", "setting": "[6]", "result": "~12", "unit": "g"}, {"measurement": "pressure threshold values, von Frey filaments applied within the vibrissal pad", "setting": "[6]", "result": "not significantly modified"}]}
